Assay results reported in ChEMBL document CHEMBL1201862, “PubChem BioAssay data set” (2004).
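Assay format: 96-well plates, 48-hour exposure. GI50 marks 50% less growth.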 Calls of active or inactive are those of the source. No stated cut-off is given here; in the data, active = GI50 up to about 1.1 µM and inactive = higher.

Key:
Test in all cases: NCI-60 cell line screen, 48 h
[1] = test system: A549
[2] = test system: CAKI-1
[3] = test system: HCC 2998
[4] = test system: HCT-15
[5] = test system: HOP-62
[6] = test system: HOP-92
[7] = test system: K562
[8] = test system: M14
[9] = test system: MDA-MB-231
[10] = test system: MOLT-4
[11] = test system: NCI-H226
[12] = test system: NCI-H23
[13] = test system: NCI/ADR-RES
[14] = test system: PC-3
[15] = test system: SF-539
[16] = test system: SK-OV-3
[17] = test system: SN12C
[18] = test system: TK-10
[19] = test system: U-251
[20] = test system: UACC-62

In the case of `Cc1ccc(-c2cs/c(=N\c3c(C)n(C)n(-c4ccccc4)c3=O)n2CCO)cc1`, the GI50 [1] is reported as > 100 µM (inactive), the GI50 [2] is reported as > 100 µM (inactive) and the GI50 [3] is reported as > 100 µM (inactive). The GI50 [4] was > 100 µM, the GI50 [5] was > 100 µM (inactive) and the GI50 [6] was > 100 µM (inactive). For the same compound, the GI50 [7] was 97.3 µM (inactive), the GI50 [8] was > 100 µM (inactive) and the GI50 [9] was > 100 µM (inactive). The GI50 [10] was 87.5 µM (inactive), the GI50 [11] was > 100 µM (inactive) and the GI50 [12] was 50.8 µM (inactive). For the same compound, the GI50 [13] was 65.6 µM (inactive), the GI50 [14] was > 100 µM (inactive) and the GI50 [15] was > 100 µM (inactive). For the same compound, the GI50 [16] was > 100 µM (inactive), the GI50 [17] was > 100 µM (inactive) and the GI50 [18] was > 100 µM (inactive). For the same compound, the GI50 [19] was > 100 µM (inactive) and the GI50 [20] was > 100 µM (inactive).
